≈ marks a conversion by molar mass, not a printed value. Non-standard residues stand in square brackets, D forms with d. Residues, ends and D or L forms follow the SMILES beside them. dPhe(4-Cl) = N[C@H](Cc1ccc(Cl)cc1)C(=O)O; NMeN = CN[C@@H](CC(N)=O)C(=O)O; dNMeL = CN[C@H](CC(C)C)C(=O)O; dOrn = NCCC[C@@H](N)C(=O)O
Columns and labels:
[1] = Chemi-Luminescent Nitrogen Detection (CLND) kinetic solubility assay; assay type: physicochemical; conditions: phosphate buffered saline, pH 7.4; kinetic aqueous solubility by CLND; read-out: Solubility
Method: GSK in-house kinetic solubility assay: 5 μL of 10mM DMSO stock solution diluted to 100 uL with pH7.4 phosphate buffered saline, equilibrated for 1 hour at room temperature, filtered through Millipore Multiscreen HTS-PCF filter plates (MSSL BPC).
The filtrate is quantified by suitably calibrated flow injection CLND. The standard error of the CLND solubility determination is ±30 μM, the upper limit of the solubility is 500 μM when working from 10 mM DMSO stock solution.

[2] = Intrinsic clearance (CLint) assay, mouse liver microsomes; assay type: in vitro ADME; conditions: for % LBF Mouse: liver blood flow; for CLint Mouse: mouse liver microsomes; for half-life at 0.5 µM: mouse, pooled mouse liver microsomes, pH 7.4, read-out: Microsomal t1/2 Mouse; for CLpred Mouse: predicted metabolic clearance
Method: (§1) Pooled mouse and human liver microsomes are purchased from Xenotech. Microsomes (final protein concentration 0.5 mg/mL, MgCl2 (final concentration = 5 mM) and test compound (final substrate concentration = 0.5] M; final DMSO concentration = 0.5%) in 0.1 M phosphate buffer pH 7.4 are pre-incubated at 37°C prior to the addition of NADPH (final concentration = 1 mM) to initiate the reaction. The final incubation volume is 600 μL.
(§2) Control incubation is included for each compound tested where 0.1 M phosphate buffer pH 7.4 is added instead of NADPH (minus NADPH). One control compound is included with each species. All incubations are performed singularly for each test compound. Each compound is incubated for 45 minutes and samples (100 μL) of incubate are taken at 0, 5, 15, 30 and 45 min. The control (minus NADPH) is sampled at 30 min only. The reactions are stopped by the addition of sample to 200 μL Acetonitrile: Methanol 3:1 containing internal standard. The terminated samples are centrifuged at 2,500 rpm for 20 min at 4°C to precipitate the protein. Quantitative analysis: following protein precipitation, the samples were analyzed using specific LC-MS/MS conditions. Data analysis: from a plot of ln peak area ratio (compound peak area/internal standard peak area) against time, the gradient of the line was determined. Subsequently, half-life and intrinsic clearance were calculated using the equations below: Eliminationrateconstant(K)=(−gradient) Halflife(t1/2)(min)=0.693/K Cli(mL/min/gprotien)=V×0.693/t1/2 WhereV=Incubationvolume(mL/gmicrosomalprotien)

[3] = Artificial membrane permeability assay; assay type: in vitro ADME; conditions: PAMPA, pH 7.4; passive artificial membrane permeability; read-out: Permeability
Method: A 8% L-a-phosphatidylcholine (EPC) in 1% cholesterol decane solution and a 1.8% EPC in cholesterol decane solution were prepared. The lipid solution was then aliquoted into 4 mL capped vials, sealed with parafilm and stored in-20°Cfreezer. The lipid solution was then transferred from 4 mL vial into 96-well half area plate (130μL/well) for daily assay usage. An additional 50 mM phosphate buffer with 0.5% encapsin, pH at 7.4 was prepared. The assay was run by the Biomek FX and Biomek software. The assay procedure is written under the Biomek software. For one batch assay, it can test two 96-well sample plates with at least one standard on each sample plate. The total assay time was about 4 hours. 3.5 μL of lipid solution were added to the filler plate, shaken for 12 seconds, and 250 μL of buffer were added to donor side and 100 μL to the receiver side. The assay plate was shaken for 45 min before adding the compounds. The test compounds (2.5 μL) were added to the donor side. The assay was run as replicates: Assay plates1 and 2 tested the sample plate 1; assay plates 3 and 4 tested the sample plate 2. The assay plates were then incubated and shaken for 3 hours at room temperature.
The assay samples were transferred to the HPLC analysis plates and 100 μL of receiver solution were aspirated and transferred to the receiver for analysis. Similarly, another 100 μL from the donor solution were transferred to the donor analysis plate.
Compound concentration was measured by HPLC at different time-points and permeability was established as nm/sec.

[4] = Chrom logD assay; assay type: physicochemical; conditions: reversed phase HPLC column (Gemini NX C18), pH 7.4; read-out: Log D
Method: The Chromatographic Hydrophobicity Index (CHI) values were measured using a reversed phase HPLC column (50 x 2 mmx 3 μMGemini NX C18, Phenomenex, UK) with fast acetonitrile gradient at starting mobile phase of 100% pH = 7.4 buffer. CHI values are derived directly from the gradient retention times by using a calibration line obtained for standard compounds. The CHI value approximates to the volume % organic concentration when the compound elutes. CHI is linearly transformed into ChromlogD by the formula: ChromlogD=0.0857CHI−2.00
The average error of the assay is ±3 CHI unit or ±0.25 ChromlogD.

[5] = target: human serum albumin (Homo sapiens, UniProt P02768); experiment: Human serum albumin (HSA) binding assay; assay type: in vitro ADME; conditions: human serum albumin binding
Method: HSA binding assay was performed according to the method described by Valko K, et al. The basic principle of the measurements is the determination of gradient retention times of compounds on immobilized HSA column and converting these retention times to the appropriate property values using calibration. The peaks are detected and identified by UV. Calibration sets of compounds are measured before each run for which the HSA binding values are known. The retention times of the calibration set of compounds are plotted against these known values. The slope and the intercept of the obtained straight lines are used to calculate the HSA binding for the unknown compounds.

[6] = test system: Mtb H37Rv; conditions: for antimycobacterial activity against Mtb H37Rv: at the maximum dose tested; for MIC against Mtb H37Rv: duplicate, analogues
[7] = Intrinsic clearance (CLint) assay, human liver microsomes; assay type: in vitro ADME; conditions: for CLint Human: human liver microsomes; for half-life at 0.5 µM: human, pooled human liver microsomes, pH 7.4, human liver microsomes, read-out: Microsomal t1/2 Human; for % LBF Human: liver blood flow; for CLpred Human: predicted metabolic clearance
Method: as §1, §2

Chain of human serum albumin (P02768 25-609): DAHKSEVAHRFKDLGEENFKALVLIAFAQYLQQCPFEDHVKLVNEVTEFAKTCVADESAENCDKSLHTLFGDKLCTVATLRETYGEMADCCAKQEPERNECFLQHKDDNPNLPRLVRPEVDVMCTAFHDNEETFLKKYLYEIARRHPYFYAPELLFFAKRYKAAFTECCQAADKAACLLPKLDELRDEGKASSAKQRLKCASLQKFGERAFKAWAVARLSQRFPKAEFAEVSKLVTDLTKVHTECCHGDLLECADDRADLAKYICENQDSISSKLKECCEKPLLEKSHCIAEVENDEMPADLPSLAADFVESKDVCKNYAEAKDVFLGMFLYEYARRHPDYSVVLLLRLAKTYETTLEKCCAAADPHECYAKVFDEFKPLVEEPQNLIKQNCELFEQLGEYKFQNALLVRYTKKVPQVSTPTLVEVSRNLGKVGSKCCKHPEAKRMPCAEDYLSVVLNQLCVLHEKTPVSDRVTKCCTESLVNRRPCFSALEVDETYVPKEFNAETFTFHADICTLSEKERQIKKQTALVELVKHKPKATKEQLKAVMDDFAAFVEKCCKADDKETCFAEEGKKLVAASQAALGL

SMILES | solubility kinetic at 1 h [1] [mg/mL] | % LBF Mouse [2] [%] | CLint Mouse [2] [mL/min/g tissue] | half-life at 0.5 µM [2] [h] | Papp at 3 h [3] [nm/s] | chromatographic logD [4] | % HSA [5] [%] | antimycobacterial activity against Mtb H37Rv [6] | MIC against Mtb H37Rv [6] [µM] | CLint Human [7] [mL/min/g tissue] | half-life at 0.5 µM [7] [h] | % LBF Human [7] [%] | CLpred Human [7] [L/h/kg] | CLpred Mouse [2] [L/h/kg]
CSCC[C@@H]1NC(=O)[C@@H](CC(C)C)NC(=O)[C@H](CC(C)C)NC(=O)[C@H](Cc2c[nH]c3ccccc23)NC(=O)[C@@H](CCCN)NC(=O)[C@H](CC(N)=O)NC1=O [Compound 8c] (cyclo(L[dL]MN[dOrn]W)) | ≥ 0.164 | <16.30 | <0.48 | > 2.31 | < 10 | 1.78 | 73.79 | complete loss of activity | >80 | 1.79 | 0.511 | 70.90 | 0.7656 | 
CC(C)C[C@H]1NC(=O)[C@@H](Cc2ccc(Cl)cc2)NC(=O)[C@H](Cc2c[nH]c3ccccc23)NC(=O)[C@@H](CCCN)NC(=O)[C@H](CC(N)=O)NC(=O)[C@H](C(C)C)NC1=O [Compound 17c] (cyclo(N[dOrn]W[dPhe(4-Cl)][dL]V)) | ≥ 0.23 | 17.9 | 0.54 | 2.06 | 17 | 2.12 | 93.83 |  | 30 (≈ 24.3 µg/mL) | <0.40 | > 2.31 | <35.08 | <0.381 | 1.356
CC[C@H](C)[C@@H]1NC(=O)[C@H](Cc2c[nH]c3ccccc23)NC(=O)[C@@H](CCCN)NC(=O)[C@H](CC(N)=O)NC(=O)[C@H](C(C)C)NC(=O)[C@@H](CC(C)C)NC1=O [Compound 19c] (cyclo(I[dL]VN[dOrn]W)) | ≥ 0.183 | <16.3 | <0.48 | > 2.31 | < 10 | 1.73 | 67.10 |  | 7.5 (≈ 5.55 µg/mL) | <0.40 | > 2.31 | <35.08 | <0.381 | <1.23
CC[C@H](C)[C@@H]1NC(=O)[C@H](CC(C)C)NC(=O)[C@H](Cc2c[nH]c3ccccc23)NC(=O)[C@@H](CCCN)NC(=O)[C@H](CC(N)=O)NC(=O)[C@H](C(C)C)NC1=O [Compound 20c] (cyclo(IVN[dOrn]WL)) | ≥ 0.195 | <16.3 | <0.48 | > 2.31 | < 3 | 1.83 | 83.67 | completely abolished the activity | >80 | <0.40 | > 2.31 | <35.08 | <0.381 | <1.23
CC[C@H](C)[C@@H]1NC(=O)[C@H]([C@@H](C)CC)NC(=O)[C@@H](CC(C)C)NC(=O)[C@H](CC(C)C)NC(=O)[C@H](Cc2c[nH]c3ccccc23)NC(=O)[C@@H](CCCN)NC1=O [Compound 12c] (cyclo(II[dOrn]WL[dL])) | ≥ 0.206 | <16.39 | <0.48 | > 2.31 | 19 | 2.94 | 96.06 |  | 3.1 (≈ 2.33 µg/mL) | 5.93 | 0.155 | 88.98 | 0.9612 | <1.23
CC(C)C[C@@H]1NC(=O)[C@H](Cc2c[nH]c3ccccc23)NC(=O)[C@@H](CCCN)NC(=O)[C@H](CC(N)=O)N(C)C(=O)[C@H](C(C)C)NC(=O)[C@@H](CC(C)C)N(C)C1=O [Compound 25c] (cyclo(L[dNMeL]V[NMeN][dOrn]W)) | ≥ 0.221 | <16.3 | <0.48 | > 2.31 | < 10 | 2.25 | 82.97 |  |  | <0.40 | > 2.31 | <35.08 | <0.381 | <1.23
CC[C@H](C)[C@@H]1NC(=O)[C@@H](Cc2ccc(Cl)cc2)NC(=O)[C@H](CC(C)C)NC(=O)[C@H](Cc2c[nH]c3ccccc23)NC(=O)[C@@H](CCCN)NC(=O)[C@@H](CCCN)NC1=O [Compound 18c] (cyclo(I[dOrn][dOrn]WL[dPhe(4-Cl)])) | 0.007 (≈ 8.51 µM) | 28.4 | 0.98 | 1.13 | 80 |  | 98.70 |  | 17.5 (≈ 14.4 µg/mL) | 1.06 | 0.862 | 59.15 | 0.639 | 2.148
